Source: US20250360092A1, “Carotenoid-fortified Yogurt and Methods For Preparing The Same” (Maravilla, LLC, priority 2024, published 2025)

Assay type: physicochemical
Conditions: start of the thirty-five-day storage at 4° C.
Procedure: Lutein and Zeaxanthin Stability Over Shelf Life. […] The stability may be influenced by the way lutein was added to the yogurt. When lutein is introduced post-fermentation via stirring, it tends to degrade in a concentration-dependent manner. […] This phenomenon may be attributed to the consumption of oxygen in milk by Lactobacillus bulgaricus during fermentation. […] The samplings were weighted into […] falcon tubes and 4 milliliters of tetrahydrofuran containing 0.1% was added to each sampling. The mixtures were vortexed for 30 seconds and centrifuged at 3500 grams for 5 minute at 20° C. […] The three extracts were then pooled and dried in the vacuum centrifuge at less than 30° C. and the dry residue was resuspended in 10 milliliters of acetone and read in the spectrophotometer. […] Carotenoid profiling, relative purity and quantification were carried out in a HPLC 1260 Infinity Series (Agilent Technologies, Santa Clara, CA, USA), equipped with a diode array detector, quaternary pump, degasser, thermostatically-controlled column compartment, and a thermostatically-controlled autosampler. […] For carotenoid quantification in human serum, 100 microliters of a sampling were injected. […] Differences in serum carotenoid concentration at each time point were assessed by paired t-test.

With `CC1=C[C@H](O)CC(C)(C)[C@H]1/C=C/C(C)=C/C=C/C(C)=C/C=C/C=C(C)/C=C/C=C(C)/C=C/C1=C(C)C[C@@H](O)CC1(C)C` [Lutein, lutein] the “starting concentration in the lutein-fortified yogurt sample” value was 14.60±0.41 mg/100 g.

With `CC1=C(/C=C/C(C)=C/C=C/C(C)=C/C=C/C=C(C)/C=C/C=C(C)/C=C/C2=C(C)C[C@@H](O)CC2(C)C)C(C)(C)C[C@H](O)C1` [Zeaxanthin, zeaxanthin] the “starting concentration in the lutein-fortified yogurt sample” value was 0.71±0.02 mg/100 g.
